Results published in article PMC4944999 (PLoS ONE, 2016).
Counter-ions that a name gives are not always drawn. Where no end group is shown, it is not given here.

Tests used:
[1] = test system: Recombinant neuraminidase of Influenza A virus (A/Aichi/2/1968, H3N2); type: biochemical
[2] = target: T1, HA from Aichi H3N2 (Influenza A virus, UniProt P03437); experiment: biochemical; type: binding, Influenza A/Aichi/2/68 H3N2
T1 construct: purchased Sino Biological 11707-V08H

[3] = test system: Aichi H3N2 binding to fetuin; experiment: SPR inhibition of virus binding to immobilized fetuin; parameters: species or system Influenza A/Aichi/2/68 H3N2; settings: Aichi H3N2 binding to fetuin-immobilized SPR surface, virus preincubated with inhibitor 37°C at least 15 min, four parameter logistic fit, mean ± SEM n≥2
Protocol: Measurements were performed on a Biacore™ T200 (GE-Healthcare Bio-Sciences AB) using CM5 chips, and running buffer HBSP (10 mM Hepes, 150 mM NaCl, 0.05% Tween 20, pH 7.4) at 25°C. Peptides and proteins were immobilized via amine coupling with EDC/NHS at a flow rate of 10 μl min^-1, according to the manufacturer’s instructions (GE Healthcare). Optimum preconcentration was evaluated before, using acetate and phosphate buffers (10 mM) of pH 4 to 7, and ligand concentrations of 10 μg ml^-1. For the immobilization of biotinylated sialyllactose (Lectinity), neutravidin (Thermo Fisher Scientific) (100 μg ml^-1) was immobilized by amine coupling at pH 5.5 enabling high ligand density. Biotinylated sialyllactose was then injected at a concentration of 10 μg ml^-1 in HBSP for 3 min.
A constant concentration of 50 or 100 μg ml^-1 Aichi H3N2 virus was used as analyte, while the concentration of the inhibitors was varied. The suspensions of virus and inhibitor were mixed and subsequently incubated on a Thriller® thermoshaker at 500 rpm and 37°C for at least 15 min to reach equilibrium before injection on the SPR surface. The inhibitors used were peptides or α-2,3’- and α-2,6’-sialyllactose (Carbosynth). […] Inhibition was calculated against the mean value of at least five binding events with the virus alone, using the sigmoidal four parameter logistic fit (Origin).

[4] = test system: Aichi H3N2 virus; type: binding, Influenza A/Aichi/2/68 H3N2 X31; settings: for Virus binding on peptide-modified surfaces: pH 7.4
[5] = test system: Aichi H3N2; type: cell-based, Influenza A/Aichi/2/68 H3N2
[6] = due to its amphiphilic character; cited from earlier work
[7] = target: hemagglutinin (HA) of low pathogenic influenza A/Mute Swan/Rostock/R901/2006 H7N1 K3141, on virus particles (influenza A virus A/Mute Swan/Rostock/R901/2006 H7N1)
[8] = target: hemagglutinin (HA) of low pathogenic influenza A/Mute Swan/Rostock/R901/2006 H7N1 K3141, on virus particles (influenza A virus A/Mute Swan/Rostock/R901/2006 H7N1); experiment: SPR

CC(=O)N[C@H]1[C@H]([C@H](O)[C@H](O)CO)OC(C(=O)O)=C[C@@H]1O [DANA, N-acetyl-2,3-dehydro-2-deoxy-neuraminic acid disodium salt]
IC50 [1]: 2200 ± 300 nM

ARDFYDYDVFYYAMD-NH2 [PeB]
Kd [2]: 56.8 µM
IC50 [3]: 75 ± 13 µM
IC50 ([3]; listed as PeB^GF): 13 ± 3 µM

LGVIWAGGNTNY [PeC]
Minimum detection level (lowest virus concentration showing binding 3 times above the SPR response of a buffer control) [4]: 6.25 μg Aichi H3N2 virus protein ml^-1
Virus binding on peptide-modified surfaces [4]: Significant virus binding

RRKKAAVALLPAVLLALLAP [EB]
fold lower Ki(HAI) as compared to PeB^GF [5]: 20 fold
Micelle formation [6]: forms micelles

SGFLLISNGVHWV-NH2 [PeA]
Virus binding on peptide-modified surfaces [4]: not

ARDFYGYDVFFYAMD-NH2 [PeB^GF (…-amide)]
IC50 of microneutralization of Rostock H7N1 on MDCK II cells [7]: 96 µM
IC50 [8]: 30 µM

ARDFYDYDVFYYAMD-NH2 [PeB (…-amide)]
IC50 of microneutralization of Rostock H7N1 on MDCK II cells [7]: 177 µM
IC50 [8]: 40 µM
